Laboratory results as given in patent US9217014B2, “Antifungal agents and uses thereof” (Cidara Therapeutics, Inc., priority 2011, dated 2015).
Where two headings read alike, the source gives them in different places.

Assays:
[1] = test system: Candida glabrata; assay: MIC versus a strain of Candida glabrata in 50% human serum; format: cell-based
Description: (§1) MIC values (μg/mL) of anidulafungin, caspofungin, amphotericin B, compound 1, and compound 16 against various Candida species in the presence and absence of 50% human serum were obtained as follows.
(§2) Test organisms were obtained from the American Type Culture Collection (Manassas, Va.). The isolates were maintained at −80° C., then thawed and sub-cultured prior to testing.
(§3) The MIC assay method followed the procedure described by the Clinical and Laboratory Standards Institute and employed automated liquid handlers to conduct serial dilutions and liquid transfers. The wells in columns 1-12 in standard 96-well microdilution plates were filled with 150 μL of DMSO. These would become the ‘mother plates’ from which ‘daughter’ or test plates would be prepared. The drugs (150 μL at 80× the desired top concentration in the test plates) were dispensed into the appropriate well in column 1 of the mother plates and mixed. Serial 1:1 dilutions were made through Column 11 in the “mother plate”. The wells of column 12 contained no drug and were the organism growth control wells. […]
(§4) Plates were covered with a lid, placed in plastic bags, and incubated at 35° C. The Candida isolates were read after 24 h incubation and again at 48 h. […]
(§5) For Candida species, the Minimal Inhibitory Concentration (MIC) was read per CLSI guidelines.

[2] = Pharmacokinetics in beagle dogs, intravenous; format: in vivo; conditions: for CI / half-life / Vd: 1.4 mg/kg intravenous slow bolus, mean ± SEM, n = 4 beagle dogs; for half-life / Vd: dog; for half-life: read-out: T ½ (converted); for Vd: read-out: Vz
Description: The test articles were administered to beagle dogs weighing approximately 6-10 kg. Each test article was dosed at 1.4 mg/kg in aqueous saline (with or without 0.5% Tween) over course of 1-10 minutes. […] The dogs were fasted at least 12 hours prior to each dosing and offered food after the 4-hour blood sample was taken; water was withheld for 1 hour prior to and 4 hours following each dosing event. The dose for each animal was based on its most recent body weight. The test article was injected intravenously via a catheter placed in the cephalic vein as a slow bolus.
Blood was collected via the jugular vein. All blood samples (˜1 mL each) were collected into K3EDTA tubes. Following blood collection, the samples were immediately inverted several times and were held on wet ice pending centrifugation. The samples were centrifuged within ˜30 minutes of collection under refrigeration (˜5° C. for ˜10 minutes at ˜2000 g) to obtain plasma. The plasma was frozen immediately on dry ice after separation. The plasma samples were stored at approximately −70° C. until analysis.
Plasma (100 μL) was precipitated with 400 μL of 0.1% formic acid in acetonitrile containing the internal standard (100 ng/mL pneumocandin). The samples were then capped and vortexed for about 30 seconds followed by centrifugation at 14,000 rpm at room temperature for 10 minutes. Following centrifugation 200 μL of supernatant was transferred to plastic autosampler vials containing 200 μL of 0.1% formic acid in water and vortexed. Samples were then analyzed by LCMSMS.
All pharmacokinetic calculations were performed using WinNonlin version 4.1 (Pharsight Corp) by noncompartmental analysis.

[3] = test system: C. albicans R303; assay: mouse candidiasis infection model, IP administration, kidney fungal burden; format: in vivo; conditions: for overall performance in reducing C. albicans CFUs in the kidneys of the mice: conclusion over all runs
Procedure, shortened: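 Female CD-1 mice rendered neutropenic with IP cyclophosphamide 150 mg/kg at days −4 and −1. Mice infected IV via tail vein with C. albicans R303, then given test compounds IP 2 h post-infection. Kidney fungal burden determined as CFU by plate counts; values are means of four mice.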

[4] = test system: Candida spp.; assay: MIC values versus Candida spp. at 24 and 48 hours; format: cell-based; conditions: presence and absence of 50% human serum
Description: as §1, §2, §3, §4, §5

[5] = beagle dogs, 1.4 mg/kg intravenous
[6] = Candida albicans, R303, ip, 24 h, Fifth run, IP 0.5 mg/kg, read-out: Difference from 24-h control
[7] = Candida albicans, R303, ip, 24 h, Fifth run, IP 1.5 mg/kg, read-out: Difference from 24-h control
[8] = Candida albicans, R303, ip, 24 h, Fifth run, IP 4.5 mg/kg, read-out: Difference from 24-h control
[9] = Fifth run, IP 0.5 mg/kg, kidneys 24 h after infection
[10] = Fifth run, IP 1.5 mg/kg, kidneys 24 h after infection
[11] = Fifth run, IP 4.5 mg/kg, kidneys 24 h after infection

Compound	activity against a strain of Candida glabrata in comparison to anidulafungin [1]	CI [2] [mL/min/kg]	log reduction at 0.5 mg/kg [3, 6]	log reduction at 1.5 mg/kg [3, 7]	log reduction at 4.5 mg/kg [3, 8]	Mean log10 CFU/kidneys (±SEM) [3, 9] [log10 CFU/kidneys]	Mean log10 CFU/kidneys (±SEM) [3, 10] [log10 CFU/kidneys]	Mean log10 CFU/kidneys (±SEM) [3, 11] [log10 CFU/kidneys]	overall performance in reducing C. albicans CFUs in the kidneys of the mice [3]	activity against Candida strains relative to anidulafungin (MIC) [4]	other results
CCCCCOc1ccc(-c2ccc(-c3ccc(C(=O)N[C@H]4C[C@@H](O)C(OCC[N+](C)(C)C)NC(=O)C5[C@@H](O)[C@@H](C)CN5C(=O)C([C@@H](C)O)NC(=O)C([C@H](O)[C@@H](O)c5ccc(O)cc5)NC(=O)C5C[C@@H](O)CN5C(=O)C([C@@H](C)O)NC4=O)cc3)cc2)cc1 (stereo partly shown) [compound 1]	superior activity	0.301 ± 0.0243	1.47	3.58	4.81	3.67 ± 0.07	1.56 ± 0.15	0.33 ± 0.33	performed strongly	retain their activity	circulating half-life (in words) [2, 5]: surprisingly long circulating half-life; volume of distribution (in words) [2, 5]: surprisingly large volume of distribution; half-life ([2]; beagle, in vivo, iv, 1.4 mg/kg): 53.1 ± 3.93 h; Vd ([2]; in vivo): 1.36 ± 0.0619 L/kg; log reduction at 5 mg/kg ([3]; Candida albicans, R303, ip, 24 h, First run, IP 5 mg/kg, read-out: Difference from 24-h control): 4.8; log reduction at 0.5 mg/kg ([3]; Candida albicans, R303, ip, 24 h, Second run, IP 0.5 mg/kg, read-out: Difference from 24-h control): 2.08; log reduction at 1.5 mg/kg ([3]; Candida albicans, R303, ip, 24 h, Second run, IP 1.5 mg/kg, read-out: Difference from 24-h control): 3.05; log reduction at 4.5 mg/kg ([3]; Candida albicans, R303, ip, 24 h, Second run, IP 4.5 mg/kg, read-out: Difference from 24-h control): 3.9; Mean log10 CFU/kidneys (±SD) ([3]; First run, IP 5 mg/kg, neutropenic mice, kidneys 24 h after infection): 0.40 ± 0.80 log10 CFU/kidneys; Mean log10 CFU/kidneys (±SEM) ([3]; Second run, IP 0.5 mg/kg, kidneys 24 h after infection): 2.80 ± 0.11 log10 CFU/kidneys; Mean log10 CFU/kidneys (±SEM) ([3]; Second run, IP 1.5 mg/kg, kidneys 24 h after infection): 1.83 ± 0.14 log10 CFU/kidneys; Mean log10 CFU/kidneys (±SEM) ([3]; Second run, IP 4.5 mg/kg, kidneys 24 h after infection): 0.98 ± 0.33 log10 CFU/kidneys
CCCCCOc1ccc(-c2ccc(-c3ccc(C(=O)N[C@H]4C[C@@H](O)C(NCC[N+](C)(C)C)NC(=O)C5[C@@H](O)[C@@H](C)CN5C(=O)C([C@@H](C)O)NC(=O)C([C@H](O)[C@@H](O)c5ccc(O)cc5)NC(=O)C5C[C@@H](O)CC5C(=O)C([C@@H](C)O)NC4=O)cc3)cc2)cc1 (stereo partly shown) [compound 16]	superior activity	0.365 ± 0.014	3.22	3.74	4.08	1.91 ± 0.34	1.39 ± 0.16	1.05 ± 0.36	performed strongly	retain their activity	half-life ([2]; plasma): 27.6 ± 1.11 h; Vd ([2]; plasma): 0.874 ± 0.0639 L/kg
